Test results reported in ChEMBL document CHEMBL1130375, “Pyridazinones with a pendant acylsulfonamide moiety as endothelin receptor antagonists” (Bioorg Med Chem Lett, 1997).

Key:
Endothelin-1 receptor [1] = biological target: T1, Endothelin-1 receptor (Rattus norvegicus, UniProt P26684); test: Inhibition of specific binding of [125I]ET1 (endothelin 1) to the endothelin A receptor of rat aorta membranes; assay type: cell membranes, Membrane
T1 sequence (P26684 whole entry): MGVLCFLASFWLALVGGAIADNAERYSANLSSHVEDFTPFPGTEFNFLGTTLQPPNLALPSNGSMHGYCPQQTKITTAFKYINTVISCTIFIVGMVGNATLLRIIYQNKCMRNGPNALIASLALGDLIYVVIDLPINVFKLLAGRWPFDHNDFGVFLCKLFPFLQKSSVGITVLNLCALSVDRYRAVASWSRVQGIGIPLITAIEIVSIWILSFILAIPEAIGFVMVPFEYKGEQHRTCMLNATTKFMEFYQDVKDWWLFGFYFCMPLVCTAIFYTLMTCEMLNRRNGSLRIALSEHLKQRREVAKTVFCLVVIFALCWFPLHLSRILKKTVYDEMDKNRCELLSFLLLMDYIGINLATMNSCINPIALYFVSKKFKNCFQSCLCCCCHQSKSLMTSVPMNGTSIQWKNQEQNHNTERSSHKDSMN

Endothelin-1 receptor [2] = biological target: T1, Endothelin-1 receptor; test: Compound was evaluated for the antagonism at the Endothelin A receptor (G-protein coupled endothelin A); assay type: functional; conditions: read-out: pA2 (converted)
[3] = biological target: T2, Endothelin receptor type B (Sus scrofa, UniProt P35463); test: Inhibition of specific binding of [125I]ET1 (endothelin 1) to endothelin B receptor of porcine kidney membranes
T2 sequence (P35463 whole entry): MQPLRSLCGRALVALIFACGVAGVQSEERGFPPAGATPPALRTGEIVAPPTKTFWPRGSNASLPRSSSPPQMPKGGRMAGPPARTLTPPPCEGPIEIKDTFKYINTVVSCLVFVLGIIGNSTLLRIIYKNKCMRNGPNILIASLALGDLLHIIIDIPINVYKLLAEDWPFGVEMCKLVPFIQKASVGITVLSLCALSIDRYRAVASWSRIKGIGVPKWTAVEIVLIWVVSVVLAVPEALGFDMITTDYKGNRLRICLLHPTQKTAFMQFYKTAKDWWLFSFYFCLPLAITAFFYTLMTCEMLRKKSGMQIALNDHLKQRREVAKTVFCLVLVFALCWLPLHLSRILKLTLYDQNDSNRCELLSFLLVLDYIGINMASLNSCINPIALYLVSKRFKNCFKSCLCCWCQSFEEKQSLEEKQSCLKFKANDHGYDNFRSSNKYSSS

Endothelin-1 receptor [4] = biological target: T1, Endothelin-1 receptor; test: Compound was evaluated for the antagonism at the Endothelin A receptor in isolated rat aortic rings; assay type: functional; conditions: read-out: pA2 (converted)
[5] = biological target: T3, Endothelin receptor type B (Homo sapiens, UniProt P24530); test: Compound was evaluated for the antagonism at the Endothelin B receptor in isolated rabbit jugularis vein; assay type: functional, Oryctolagus cuniculus; conditions: target entry is the homologue from another species; read-out: pA2 (converted)
T3 sequence (P24530 whole entry): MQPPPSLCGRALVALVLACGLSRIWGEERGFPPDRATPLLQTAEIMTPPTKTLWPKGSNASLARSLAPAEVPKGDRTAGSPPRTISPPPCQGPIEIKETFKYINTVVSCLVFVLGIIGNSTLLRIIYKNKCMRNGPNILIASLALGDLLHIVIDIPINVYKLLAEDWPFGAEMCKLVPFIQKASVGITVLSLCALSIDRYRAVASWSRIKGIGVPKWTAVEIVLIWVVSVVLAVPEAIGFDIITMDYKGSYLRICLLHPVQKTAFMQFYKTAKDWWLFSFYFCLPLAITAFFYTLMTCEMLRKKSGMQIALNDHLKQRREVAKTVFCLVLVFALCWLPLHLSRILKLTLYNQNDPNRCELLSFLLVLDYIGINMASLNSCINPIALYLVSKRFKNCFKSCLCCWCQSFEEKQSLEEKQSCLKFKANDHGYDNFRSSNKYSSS

**Q.** Which IC50 (Endothelin-1 receptor [1]) does the source give for `CCCc1cc(C(=O)O)ccc1OC(C(=O)NS(=O)(=O)c1ccc(C(C)C)cc1)c1ccc2c(c1)OCO2` (stereo not given) here?
**A.** The IC50 was 41 nM.

**Q.** What about the Kb (Endothelin-1 receptor [2]) of the same compound?
**A.** The Kb was 3.16 nM.

**Q.** What about the IC50 [3] of the same compound?
**A.** The IC50 was 900 nM.

**Q.** What does the source list for `CCCc1ccc(=O)n(C(C(=O)NS(=O)(=O)c2ccc(C(C)C)cc2)c2ccc3c(c2)OCO3)n1` (stereo not given)?
**A.** IC50 (Endothelin-1 receptor [1]): 640 nM; IC50 [3]: 8400 nM

**Q.** `COc1ccc(C2=NN(C(C(=O)NS(=O)(=O)c3ccc(C(C)C)cc3)c3ccc4c(c3)OCO4)C(=O)CC2)cc1` (stereo not given) was tested. Which IC50 (Endothelin-1 receptor [1]) did it give?
**A.** The IC50 was 2900 nM.

**Q.** What about the IC50 [3] of the same compound?
**A.** The IC50 was 4200 nM.

**Q.** For `COc1ccc(S(=O)(=O)NC(=O)C(c2ccc3c(c2)OCO3)n2nc(C)ccc2=O)cc1` (stereo not given), which IC50 (Endothelin-1 receptor [1]) is on record?
**A.** The IC50 was 160 nM.

**Q.** And the IC50 [3]?
**A.** Its IC50 is > 100000 nM.

**Q.** Which results are given for `COc1ccc(C2=NN(C(C(=O)NS(=O)(=O)c3ccc(C(C)C)cc3)c3ccc4c(c3)OCO4)C(=O)CC2)cc1OC` (stereo not given)?
**A.** IC50 (Endothelin-1 receptor [1]): 4100 nM; IC50 [3]: > 100000 nM

**Q.** With `Cc1ccc(=O)n(C(C(=O)NS(=O)(=O)c2ccc(C(C)C)cc2)c2ccc3c(c2)OCO3)n1` (stereo not given) as the compound, how does the IC50 (Endothelin-1 receptor [1]) read?
**A.** The IC50 was 34 nM.

**Q.** What about the Kb (Endothelin-1 receptor [2]) of the same compound?
**A.** Its Kb is 631 nM.

**Q.** What about the IC50 [3] of the same compound?
**A.** Its IC50 is 2900 nM.

**Q.** For `CC(C)c1ccc(S(=O)(=O)NC(=O)C(c2ccc3c(c2)OCO3)N2N=C(c3cccs3)CCC2=O)cc1` (stereo not given), which IC50 (Endothelin-1 receptor [1]) is on record?
**A.** Its IC50 is 3200 nM.

**Q.** And the IC50 [3]?
**A.** The IC50 was > 100000 nM.

**Q.** Which results are given for `Cc1ccc(=O)n(C(C(=O)NS(=O)(=O)c2ccc(C(C)(C)C)cc2)c2ccc3c(c2)OCO3)n1` (stereo not given)?
**A.** IC50 (Endothelin-1 receptor [1]): 32 nM; IC50 [3]: 2000 nM

**Q.** `Cc1ccc(=O)n(C(C(=O)NS(=O)(=O)c2ccc(-c3ccccc3)cc2)c2ccc3c(c2)OCO3)n1` (stereo not given) was tested. Which IC50 (Endothelin-1 receptor [1]) did it give?
**A.** Its IC50 is 240 nM.

**Q.** And the IC50 [3]?
**A.** Its IC50 is 2400 nM.

**Q.** What does the source list for `CC(C)c1ccc(S(=O)(=O)NC(=O)C(c2ccc3c(c2)OCO3)n2nc(C(C)(C)C)ccc2=O)cc1` (stereo not given)?
**A.** IC50 (Endothelin-1 receptor [1]): 4000 nM; IC50 [3]: > 100000 nM

**Q.** For `O=C(O)C(c1ccc2c(c1)OCO2)N1N=C(c2ccccc2)CCC1=O` (stereo not given), which IC50 (Endothelin-1 receptor [1]) is on record?
**A.** The IC50 was > 100000 nM.

**Q.** What about the IC50 [3] of the same compound?
**A.** The IC50 was > 100000 nM.

**Q.** With `CC(C)c1ccc(S(=O)(=O)NC(=O)C(c2ccc3c(c2)OCO3)N2N=C(c3ccc(Cl)cc3)CCC2=O)cc1` (stereo not given) as the compound, how does the IC50 (Endothelin-1 receptor [1]) read?
**A.** The IC50 was 2700 nM.

**Q.** What about the IC50 [3] of the same compound?
**A.** Its IC50 is 6400 nM.

**Q.** For `CC(C)c1ccc(S(=O)(=O)NC(=O)C(c2ccc3c(c2)OCO3)n2nc(C3CC3)ccc2=O)cc1` (stereo not given), which IC50 (Endothelin-1 receptor [1]) is on record?
**A.** Its IC50 is 260 nM.

**Q.** What about the IC50 [3] of the same compound?
**A.** The IC50 was 2600 nM.

**Q.** Which results are given for `Cc1cc(=O)n(C(C(=O)NS(=O)(=O)c2ccc(C(C)C)cc2)c2ccc3c(c2)OCO3)nc1C` (stereo not given)?
**A.** IC50 (Endothelin-1 receptor [1]): 340 nM; IC50 [3]: 5200 nM

**Q.** Which results are given for `COc1ccc(C2=NN(C(C(=O)NS(=O)(=O)c3ccc(C(C)C)cc3)c3ccc4c(c3)OCO4)C(=O)CC2)c(OC)c1` (stereo not given)?
**A.** IC50 (Endothelin-1 receptor [1]): > 100000 nM; IC50 [3]: > 100000 nM

**Q.** How did the IC50 (Endothelin-1 receptor [1]) turn out when `Cc1cc(C)c(=O)n(C(C(=O)NS(=O)(=O)c2ccc(C(C)C)cc2)c2ccc3c(c2)OCO3)n1` (stereo not given) was run?
**A.** Its IC50 is 29 nM.

**Q.** What about the Kb (Endothelin-1 receptor [4]) of the same compound?
**A.** Its Kb is 1260 nM.

**Q.** What about the Kb [5] of the same compound?
**A.** Its Kb is 1580 nM.

**Q.** What about the IC50 [3] of the same compound?
**A.** Its IC50 is 3500 nM.

**Q.** `CC(C)c1ccc(S(=O)(=O)NC(=O)C(c2ccc3c(c2)OCO3)N2N=C(c3ccccc3)CCC2=O)cc1` (stereo not given) was tested. Which IC50 (Endothelin-1 receptor [1]) did it give?
**A.** The IC50 was 2600 nM.

**Q.** What about the IC50 [3] of the same compound?
**A.** The IC50 was > 100000 nM.

**Q.** `CC(C)c1ccc(S(=O)(=O)NC(=O)C(c2ccc3c(c2)OCO3)n2nc3c(cc2=O)CCC3)cc1` (stereo not given) was tested. Which IC50 (Endothelin-1 receptor [1]) did it give?
**A.** Its IC50 is 2500 nM.

**Q.** And the IC50 [3]?
**A.** Its IC50 is 1700 nM.

**Q.** What does the source list for `Cc1ccc(=O)n(C(C(=O)NS(=O)(=O)c2ccc(Br)cc2)c2ccc3c(c2)OCO3)n1` (stereo not given)?
**A.** IC50 (Endothelin-1 receptor [1]): 230 nM; IC50 [3]: > 100000 nM

**Q.** For `CCc1cc(C)nn(C(C(=O)NS(=O)(=O)c2ccc(C(C)C)cc2)c2ccc3c(c2)OCO3)c1=O` (stereo not given), which IC50 (Endothelin-1 receptor [1]) is on record?
**A.** The IC50 was 32 nM.

**Q.** And the IC50 [3]?
**A.** The IC50 was 2600 nM.

**Q.** For `CCCc1cc(C)c(=O)n(C(C(=O)NS(=O)(=O)c2ccc(C(C)C)cc2)c2ccc3c(c2)OCO3)n1` (stereo not given), which IC50 (Endothelin-1 receptor [1]) is on record?
**A.** The IC50 was 290 nM.

**Q.** And the IC50 [3]?
**A.** Its IC50 is 4500 nM.

**Q.** With `COc1ccc(OC)c(C2=NN(C(C(=O)NS(=O)(=O)c3ccc(C(C)C)cc3)c3ccc4c(c3)OCO4)C(=O)CC2)c1` (stereo not given) as the compound, how does the IC50 (Endothelin-1 receptor [1]) read?
**A.** Its IC50 is > 100000 nM.

**Q.** What about the IC50 [3] of the same compound?
**A.** The IC50 was > 100000 nM.

**Q.** With `COc1ccc(-c2cc(C)c(=O)n(C(C(=O)NS(=O)(=O)c3ccc(C(C)C)cc3)c3ccc4c(c3)OCO4)n2)cc1` (stereo not given) as the compound, how does the IC50 (Endothelin-1 receptor [1]) read?
**A.** The IC50 was 4000 nM.

**Q.** And the IC50 [3]?
**A.** Its IC50 is 7700 nM.

**Q.** How did the IC50 (Endothelin-1 receptor [1]) turn out when `Cc1ccc(=O)n(C(C(=O)NS(=O)(=O)c2ccccc2)c2ccc3c(c2)OCO3)n1` (stereo not given) was run?
**A.** Its IC50 is 230 nM.

**Q.** What about the IC50 [3] of the same compound?
**A.** Its IC50 is > 100000 nM.

**Q.** How did the IC50 (Endothelin-1 receptor [1]) turn out when `COc1ccc(-c2ccc(=O)n(C(C(=O)NS(=O)(=O)c3ccc(C(C)C)cc3)c3ccc4c(c3)OCO4)n2)cc1` (stereo not given) was run?
**A.** The IC50 was 3200 nM.

**Q.** And the IC50 [3]?
**A.** Its IC50 is 5700 nM.

**Q.** How did the IC50 (Endothelin-1 receptor [1]) turn out when `Cc1cc(C)c(=O)n(C(C(=O)NS(=O)(=O)c2ccc(C(C)(C)C)cc2)c2ccc3c(c2)OCO3)n1` (single isomer, unassigned; form 1) was run?
**A.** Its IC50 is 2600 nM.

**Q.** And the IC50 [3]?
**A.** Its IC50 is > 100000 nM.

**Q.** What does the source list for `Cc1cc(C)c(=O)n(C(C(=O)NS(=O)(=O)c2ccc(C(C)(C)C)cc2)c2ccc3c(c2)OCO3)n1` (single isomer, unassigned; form 2)?
**A.** IC50 (Endothelin-1 receptor [1]): 18 nM; IC50 [3]: 550 nM

**Q.** How did the IC50 (Endothelin-1 receptor [1]) turn out when `Cc1cc(C)c(=O)n(C(C(=O)NS(=O)(=O)c2ccc(C(C)(C)C)cc2)c2ccc3c(c2)OCO3)n1` (stereo in doubt; 2q) was run?
**A.** The IC50 was 20 nM.

**Q.** And the IC50 [3]?
**A.** Its IC50 is 1200 nM.
